Read-outs that look alike come from different tables or passages of the source.
Columns and labels:
[1] = target: T1, CDC37 (Homo sapiens, UniProt Q16543); experiment: Thermal Shift Assay; format: binding; conditions: DMSO control 52.3 °C
T1 sequence (Q16543 1-378): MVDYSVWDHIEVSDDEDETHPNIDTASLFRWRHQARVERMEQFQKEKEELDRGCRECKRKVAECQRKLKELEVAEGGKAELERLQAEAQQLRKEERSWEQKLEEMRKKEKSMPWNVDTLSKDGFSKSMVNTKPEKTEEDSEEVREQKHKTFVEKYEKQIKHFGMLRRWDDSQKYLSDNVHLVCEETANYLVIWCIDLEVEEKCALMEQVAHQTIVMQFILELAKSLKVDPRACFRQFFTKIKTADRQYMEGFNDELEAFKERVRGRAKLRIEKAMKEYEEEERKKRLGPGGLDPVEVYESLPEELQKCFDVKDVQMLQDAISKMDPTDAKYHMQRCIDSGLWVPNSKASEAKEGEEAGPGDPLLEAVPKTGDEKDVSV

[2] = system: HepG2; experiment: Viability of HCC cell line HepG2; format: cell-based, human
[3] = system: Huh7; experiment: Viability of HCC cell line Huh7; format: cell-based, human
[4] = system: Hep3B; experiment: Viability of HCC cell line Hep3B; format: cell-based, human
[5] = system: Hep40; experiment: Viability of HCC cell line Hep40; format: cell-based, human; conditions: read-out: IC50 in HCC cell lines, Hep40
[6] = system: PLC/PRF/5; experiment: Viability of HCC cell line PLC/PRF/5; format: cell-based, human
[7] = system: SNU-398; experiment: Viability of HCC cell line SNU-398; format: cell-based, human
[8] = system: SNU-449; experiment: Viability of HCC cell line SNU-449; format: cell-based, human
[9] = system: SNU-182; experiment: Viability of HCC cell line SNU-182; format: cell-based, human
[10] = system: SNU-475; experiment: Viability of HCC cell line SNU-475; format: cell-based, human
[11] = system: SNU-423; experiment: Viability of HCC cell line SNU-423; format: cell-based, human
[12] = system: primary hepatocytes Hu8216; experiment: Viability of primary hepatocytes Hu8216; format: cell-based; conditions: Homo sapiens, Hepatocyte, read-out: IC50 in primary hepatocytes, Hu8216
[13] = system: primary hepatocytes Hu1748; experiment: Viability of primary hepatocytes Hu1748; format: cell-based; conditions: Homo sapiens, Hepatocyte, read-out: IC50 in primary hepatocytes, Hu1748
[14] = system: HepG2 and Huh7 cells; format: cell-based, human; conditions: read-out: IC50, proliferation of HepG2 and Huh7 cells
[15] = system: genetically induced liver tumors; experiment: Primary HCC mouse model; format: in vivo; conditions: 1500 p.p.m in food, 12 weeks; for number of tumor nodules in the livers: vs control food
[16] = system: orthotopic PDX from HCC patients (HCC-1, HCC-2, HCC-3); experiment: Orthotopic HCC PDX models, drug in food; format: in vivo, mouse; conditions: for PDX tumor growth (bioluminescence signals and tumor volumes): 1,500 p.p.m mixed in food, oral, vs regular chow
[17] = system: PDX-HCC-2; experiment: PDX; format: in vivo, mouse; conditions: PDX HCC-2, sorafenib 50 mg/Kg, NEN 200 mg/Kg or niclosamide 400 mg/Kg, daily oral gavage, four weeks
[18] = target: T1, CDC37; experiment: Pull-down assay with niclosamide-conjugated sepharose beads; format: binding; conditions: niclosamide conjugated to epoxy-activated sepharose beads
[19] = cited from earlier work
[20] = system: control shRNA and CDC37 shRNA stable transfected HepG2; experiment: Cell viability of control shRNA and CDC37 shRNA HepG2; format: cell-based, human; conditions: 6 days of treatment
[21] = system: control shRNA and CDC37 shRNA stable transfected Huh7; experiment: Cell viability of control shRNA and CDC37 shRNA Huh7; format: cell-based, human; conditions: 6 days of treatment
[22] = system: control shRNA and CDC37 shRNA stable transfected Hep3B; experiment: Cell viability of control shRNA and CDC37 shRNA Hep3B; format: cell-based, human; conditions: 6 days of treatment
[23] = system: HepG2 and Huh7 cells; experiment: In vitro anti-proliferation assay combined with sorafenib; format: cell-based, human; conditions: added at its IC30 or IC50 to a range of sorafenib concentrations
[24] = target: HSP90/CDC37 complex (Homo sapiens, UniProt Q16543); format: biochemical; conditions: purified recombinant HSP90 and CDC37, ELISA and co-IP
[25] = system: HSP70 and HSP27 expression; experiment: Western blot for heat shock response; format: cell-based; conditions: treated cell lines
[26] = system: Wnt/β-catenin, Stat3, AKT/mTOR, and EGFR/Ras/Raf pathway proteins; experiment: Western blotting of signaling proteins in PDX; format: in vivo, mouse; conditions: NEN 1,500 p.p.m in food
[27] = single oral dose 40 mg/Kg, mice bearing PDX, compared with niclosamide
[28] = cited from earlier work; remark: listed apart in the source

With `NCCO` [ethanolamine] the “average Tm value of CDC37” value ([1]; 25 μM) was 52.93 °C and the “average Tm value of CDC37” value ([1]; 50 μM) was 53.2 °C.

In the case of `O=C(Nc1ccc([N+](=O)[O-])cc1Cl)c1cc(Cl)ccc1O` [niclosamide], the IC50 ([2]; Homo sapiens, HepG2, read-out: IC50 in HCC cell lines, HepG2) is reported as 850 nM, the IC50 ([3]; Homo sapiens, Huh-7, read-out: IC50 in HCC cell lines, Huh7) is reported as 740 nM and the IC50 ([4]; Homo sapiens, read-out: IC50 in HCC cell lines, Hep3B) is reported as 200 nM. It also gave an IC50 ([5]; Homo sapiens) of 810 nM, an IC50 ([6]; Homo sapiens, PLC-PRF-5, read-out: IC50 in HCC cell lines, PLC/PRF/5) of 770 nM and an IC50 ([7]; Homo sapiens, SNU-398, read-out: IC50 in HCC cell lines, SNU-398) of 240 nM. It also gave an IC50 ([8]; Homo sapiens, SNU-449, read-out: IC50 in HCC cell lines, SNU-449) of 670 nM, an IC50 ([9]; Homo sapiens, SNU-182, read-out: IC50 in HCC cell lines, SNU-182) of 360 nM and an IC50 ([10]; Homo sapiens, SNU-475, read-out: IC50 in HCC cell lines, SNU-475) of 400 nM. It also gave an IC50 ([11]; Homo sapiens, SNU-423, read-out: IC50 in HCC cell lines, SNU-423) of 320 nM, an IC50 [12] of 4310 nM and an IC50 [13] of 3640 nM. For the same molecule, the IC50 ([14]; Homo sapiens) was 650 to 1770 nM, the “number of tumor nodules in the livers” value [15] was “much lesser effect than NEN” and the “PDX tumor growth (bioluminescence signals and tumor volumes)” value [16] was “did not produce any significant effects on tumor growth”. For the same molecule, the tumor volume [17] was “did not decrease tumor volume”, the “pull-down of CDC37” value [18] was “pulled down CDC37” and the systemic bioavailability ([19]; in vivo) was “very limited systemic bioavailability”.

Work on `COC(=O)Nc1nc2ccc(C(=O)c3ccccc3)cc2[nH]1` [mebendazole] yielded an IC50 ([14]; Homo sapiens) of 380 to 1650 nM.

Molecule ivermectin has an IC50 ([14]; range over HepG2 and Huh7, Supplemental Figure 8) greater than 10000 nM.

In the case of `NCCO.O=C(Nc1ccc([N+](=O)[O-])cc1Cl)c1cc(Cl)ccc1O` [NEN, niclosamide ethanolamine], the “IC30, HepG2” value ([2]; HepG2) is reported as 400 nM, the IC50 ([2]; read-out: IC50 in HCC cell lines, HepG2, viability, HepG2) is reported as 460 nM and the “IC30, Huh7” value ([3]; Huh7) is reported as 500 nM. For the same molecule, the IC50 ([3]; read-out: IC50 in HCC cell lines, Huh7, viability, Huh7) was 630 nM, the IC50 ([4]; read-out: IC50 in HCC cell lines, Hep3B, viability) was 170 nM and the IC50 ([5]; viability, Hep40) was 740 nM. It also gave an IC50 ([6]; read-out: IC50 in HCC cell lines, PLC/PRF/5, viability, PLC/PRF/5) of 530 nM, an IC50 ([7]; read-out: IC50 in HCC cell lines, SNU-398, viability, SNU-398) of 200 nM and an IC50 ([8]; read-out: IC50 in HCC cell lines, SNU-449, viability, SNU-449) of 530 nM. The IC50 ([9]; read-out: IC50 in HCC cell lines, SNU-182, viability, SNU-182) was 340 nM, the IC50 ([10]; read-out: IC50 in HCC cell lines, SNU-475, viability, SNU-475) was 350 nM and the IC50 ([11]; read-out: IC50 in HCC cell lines, SNU-423, viability, SNU-423) was 260 nM. For the same molecule, the IC50 ([20]; read-out: IC50, CDC37 knockdown HepG2, CDC37 shRNA) was 610 nM, the IC50 ([20]; read-out: IC50, mock transfected (control shRNA) HepG2, control shRNA) was 350 nM and the IC50 ([21]; read-out: IC50, CDC37 knockdown Huh7, CDC37 shRNA) was 930 nM. It also gave an IC50 ([21]; read-out: IC50, mock transfected (control shRNA) Huh7, control shRNA) of 610 nM, an IC50 ([22]; read-out: IC50, CDC37 knockdown Hep3B, CDC37 shRNA) of 520 nM and an IC50 ([22]; read-out: IC50, mock transfected (control shRNA) Hep3B, control shRNA) of 160 nM. For the same molecule, the “effect on IC50 of sorafenib in HCC cells” value [23] was “reduced their IC50 values to sorafenib”, the “weight of whole livers (liver plus tumor nodules)” value ([15]; vs control and niclosamide groups) was “significantly reduced liver weight” and the “number of tumor nodules in the livers” value [15] was “visibly reduced the number of tumor nodules”. The “PDX tumor growth (bioluminescence signals and tumor volumes)” value [16] was “significantly decreased PDX growth”, the body weight changes ([16]; end of treatment period, treated vs control groups) was “no significant body weight changes” and the “effect on HSP90/CDC37 interaction” value [24] was “inhibited the HSP90/CDC37 interaction”. For the same molecule, the “average Tm value of CDC37” value ([1]; 25 μM) was 54.97 °C, the “average Tm value of CDC37” value ([1]; 50 μM) was 56.03 °C and the “heat shock response (HSP70 and HSP27 induction)” value [25] was “did not induce the classical heat shock response”. The “expression levels of signaling pathway proteins” value [26] was “decreased expression levels of proteins involved in multiple signaling pathways”, the plasma levels [27] was “similarly higher” and the water solubility [28] was “improved water solubility”. The systemic bioavailability [19] was “improved water solubility and systemic bioavailability over niclosamide”.
